Experimental data reported in the supplement of paper PMC4862054.
Where “and” joins values, the source holds several entries; their conditions need not be identical. Equal values may be shown once.

Tests used:
Details in all cases: incubation time: 72 h
[1] = tested on: CAL-120; test: normalised viability (% of control), CellTiter-Blue; higher = more viable cells (about 100 = DMSO control)
Outline: (§1)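 Each value is normalised viability at a single listed concentration of the series. Breast cancer cell lines in 384-well plates were incubated 72 h with compound and read by CellTiter-Blue fluorescence at 560/590 nm, with vehicle set to 100 and a positive kill control to 0 on every plate.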

[2] = tested on: DU-4475; test: as above
Outline: as §1

[3] = tested on: Hs578T; test: as above
Outline: as §1

[4] = tested on: MFM-223; test: as above
Outline: as §1

[5] = tested on: BT-549; test: as above
Outline: as §1

[6] = tested on: MDA-MB-231; test: as above
Outline: as §1

[7] = tested on: CAL-148; test: as above
Outline: as §1

[8] = tested on: MDA-MB-453; test: as above
Outline: as §1

[9] = tested on: MDA-MB-468; test: as above
Outline: as §1

[10] = tested on: MCF-10A; test: drug sensitivity score (DSS), CellTox Green (DSS (AUC-based score)); higher = stronger drug effect (viability inhibition or cytotoxicity); extreme values may be limits of the assay
Outline: (§2)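 Using 20 µl of cell suspension per well, breast cancer cell lines were seeded into 384-well plates pre-loaded with compound at 5 concentrations in 10-fold steps across a compound-specific 10,000-fold range. Incubation lasted 72 h, after which CellTox Green fluorescence at 485/520 nm and then CellTiter-Glo luminescence, following 10 min at room temperature, were recorded. Each plate was normalised to 0.1 % DMSO and a positive kill control before the drug sensitivity score was derived from the area under the fitted dose-response curve.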

[11] = tested on: CAL-51; test: as above
Outline: as §2

[12] = tested on: DU-4475; test: as above
Outline: as §2

[13] = tested on: HDQ-P1; test: as above
Outline: as §2

[14] = tested on: Hs578T; test: as above
Outline: as §2

[15] = tested on: BT-549; test: as above
Outline: as §2

[16] = tested on: HCC1937; test: as above
Outline: as §2

[17] = tested on: MDA-MB-436; test: as above
Outline: as §2

[18] = tested on: MDA-MB-231; test: as above
Outline: as §2

[19] = tested on: CAL-148; test: as above
Outline: as §2

[20] = tested on: MDA-MB-453; test: as above
Outline: as §2

[21] = tested on: HCC1599; test: as above
Outline: as §2

[22] = tested on: MDA-MB-468; test: as above
Outline: as §2

[23] = tested on: HCC1143; test: as above
Outline: as §2

[24] = tested on: CAL-85-1; test: as above
Outline: as §2

[25] = tested on: BT-474; test: as above
Outline: as §2

CN(Cc1cnc2nc(N)nc(N)c2n1)c1ccc(C(=O)N[C@@H](CCC(=O)O)C(=O)O)cc1 [Methotrexate]
normalised viability [%]
Details	[1]	[2]	[3]	[4]	[5]	[6]	[7]	[8]	[9]
3 nM	–	102	–	–	–	–	99.8	108	–
10 nM	85.2	–	106	108	91.4	94.2	–	–	90.7
30 nM	–	99.3	–	–	–	–	91.5	102	–
100 nM	–	101	–	–	–	–	67.3	90.7	–
1000 nM	46.9	–	86.5	107	78.6	94.7	–	–	41.5
10000 nM	55	–	79.4	100	95.7	94.1	–	–	42.7

Details	drug sensitivity score
[10]	0
[11]	0
[12]	0
[13]	0
[14]	7.51
[15]	0
[16]	0
[17]	2.33
[18]	0
[19]	0
[20]	0.671
[21]	0
[22]	0
[23]	1.72
[24]	0.579
[25]	0

Cc1cn(-c2cc(NC(=O)c3ccc(C)c(Nc4nccc(-c5cccnc5)n4)c3)cc(C(F)(F)F)c2)cn1 [Nilotinib]
normalised viability
Details	[1]	[2]	[3]	[4]	[5]	[6]	[7]	[8]	[9]
3 nM	–	105% and 98.1%	–	–	–	–	77% and 88.5%	111% and 103%	–
10 nM	78% and 85.4%	–	97.3% and 112%	92.3% and 91.1%	97.3% and 88.6%	87.6% and 94.3%	–	–	100% and 102%
30 nM	–	96.6% and 119%	–	–	–	–	86.2% and 93.4%	95.6% and 90%	–
100 nM	–	97.6% and 99.3%	–	–	–	–	90.8% and 95.3%	91.7% and 103%	–
1000 nM	82.5% and 88%	–	89% and 84.7%	98.9% and 91%	71.5% and 73.6%	71.3% and 75.2%	–	–	108% and 106%
10000 nM	90.2% and 92.4%	–	106% and 91%	91.7% and 89.4%	43.4% and 40.7%	57.3% and 45.2%	–	–	97.5% and 108%

Details	drug sensitivity score
[10]	0
[11]	0
[12]	0
[13]	0
[14]	0.546
[15]	1.71
[16]	0
[17]	0
[18]	3.55
[19]	0
[20]	0
[21]	0
[22]	0
[23]	0
[24]	0
[25]	0

CCN(CC)CCCC(C)Nc1ccnc2cc(Cl)ccc12 (configuration not stated) [Chloroquine]
normalised viability [%]
Details	[1]	[2]	[3]	[4]	[5]	[6]	[7]	[8]	[9]
0.297 nM	–	106	–	–	–	–	88.5	108	–
0.99 nM	96.1	–	92	101	88.3	113	–	–	107
2.97 nM	–	89.8	–	–	–	–	89.1	111	–
9.9 nM	–	112	–	–	–	–	89.4	105	–
99 nM	104	–	106	106	95.6	129	–	–	115
990 nM	105	–	93.1	94.2	108	98.7	–	–	98.4

Details	drug sensitivity score
[10]	7.9
[11]	3.75
[12]	1.64
[13]	5.48
[14]	8.48
[15]	1.78
[16]	5.9
[17]	8.96
[18]	11.6
[19]	11.8
[20]	9.85
[21]	2.54
[22]	27.3
[23]	0
[24]	7.92
[25]	14.7

CO[C@@]12[C@H](COC(N)=O)C3=C(C(=O)C(C)=C(N)C3=O)N1C[C@@H]1N[C@@H]12 [Mitomycin C]
normalised viability [%]
Details	[1]	[2]	[3]	[4]	[5]	[6]	[7]	[8]	[9]
3 nM	–	105	–	–	–	–	97.3	124	–
10 nM	92.4	–	113	96.9	85	108	–	–	95.3
30 nM	–	83.6	–	–	–	–	102	94.5	–
100 nM	–	91	–	–	–	–	100	91.4	–
1000 nM	91.5	–	98.9	96.2	84.9	76.1	–	–	78.5
10000 nM	40.4	–	5.32	8.74	14.1	47.3	–	–	8.5

Details	drug sensitivity score
[10]	0
[11]	17.2
[12]	0
[13]	0.392
[14]	0.971
[15]	0
[16]	0
[17]	0
[18]	0
[19]	1.72
[20]	0
[21]	0
[22]	27.4
[23]	1.5
[24]	0
[25]	0
